# Calls of active or inactive are those of the source. The calls are words filed in the database; no cut-off is given here.
# Columns and labels:
# Format in all cases: functional
# Mus musculus [1] = species: Mus musculus; assay: Induction of neuronal differentiation of neuronal progenitor cells isolated from embryonic mouse cerebrum at 1 uM treated every second day for 4 days and measured after 48 hrs by DAPI/MAP2 fluorescent immunostaining based assay
# Mus musculus [2] = species: Mus musculus; assay: Induction of neuronal differentiation of neuronal progenitor cells isolated from embryonic mouse cerebrum assessed as increase in MAP2 mRNA expression at 1 uM by real time PCR analysis
# [3] = Induction of neuronal differentiation of neuronal progenitor cells isolated from embryonic mouse cerebrum assessed as increase in MAP2 mRNA expression at 1 uM by real time PCR analysis relative to control
Compound,Activity (Mus musculus [1]),Activity (Mus musculus [2]),fold change (FC) [3]
COC1=C(OC)C(=O)C(C/C=C(\C)CC/C=C(\C)CCC=C(C)C)=C(C)C1=O,inactive,–,–
CC(C)=CCC/C(C)=C/Cc1cccc(C)c1,inactive,inactive,–
CC(C)=CCC/C(C)=C/CC/C(C)=C/Cc1ccccc1C,inactive,inactive,–
CC(C)=CCC/C(C)=C/CC1=C(C)C(=O)C(C)=C(C)C1=O,Active,Active,2
CC(C)=CCC/C(C)=C/Cc1ccccc1C,inactive,inactive,–
CC(C)=CCC/C(C)=C/CC/C(C)=C/CC1=C(C)C(=O)C(C)=C(C)C1=O,Active,Active,2
CC(C)=CCC/C(C)=C/CC1=C(C)C(=O)c2ccccc2C1=O,Active,Active,–
COC1=C(OC)C(=O)C(C/C=C(\C)CCC=C(C)C)=C(C)C1=O,inactive,–,–
COC1=C(OC)C(=O)C(C/C=C(\C)CC/C=C(\C)CC/C=C(\C)CCC=C(C)C)=C(C)C1=O,Active,Active,–
CC(C)=CCC1=C(C)C(=O)c2ccccc2C1=O,Active,Active,–
CC1=CC(=O)c2ccccc2C1=O,Active,–,–
CC(C)=CCC/C(C)=C/CC/C(C)=C/CC1=C(C)C(=O)c2ccccc2C1=O,Active,Active,–
CC(C)=CCC/C(C)=C/CC/C(C)=C/Cc1cccc(C)c1,inactive,inactive,–

# Source: ChEMBL document CHEMBL4619710, “Study on structure-activity relationship of vitamin K derivatives: Conversion of the naphthoquinone part into another aromatic ring and evaluation of their neuronal differentiation-inducing activity” (2020)
